In assay [1] the target is T1, Pin1 WW domain (Uniprot: Q13526, Residues: 1–41) (Homo sapiens, UniProt Q13526).
T1 construct: The Pin1 WW domain (Uniprot: Q13526, Residues: 1–41); His6 (N); GST (N); made in house
Put plainly: ITC titration of CPEB1 phosphopeptides with Pin1 WW domain. Particulars: nano ITC calorimeter, 12 °C or 25 °C, 20 mM Tris-HCl pH 7.0, 130 mM NaCl, single binding site model, repeated at least twice. From the text:
(§1) Pin1 interacts with phosphorylated CPEB1 in Xenopus oocytes, as well as in mammalian cells. […] Therefore, to mimic the in vivo scenario, we measured the affinities of the interactions between recombinant proteins (the isolated WW domain and also the full-length protein) with several peptides containing the phosphorylation sites within CPEB1. These peptides were synthesized using Fmoc Solid-Phase Peptide Synthesis (SPPS) (Supplementary Fig 2). […] All affinities were found in the low μM range (Fig. 2a,b), with the exception of the pS423 site of CPEB1, located in the linker region between the RRM domains, whose affinity was considerably lower than the rest. Our results reveal that the peptides containing pS184 and pS210—the latter known to be essential for CPEB degradation—display the best affinities for Pin1 in vitro. The affinity of the phosphorylation-dependent interaction was about 10-fold higher than that of the unphosphorylated CPEB N-terminal counterparts. In addition, in most of the peptides examined, similar binding affinities and stoichiometries (1:1) were observed using either the full-length Pin1 protein or the truncated WW domain. Only when analyzing the interaction of CPEB1 pS210 and the full-length Pin1 protein we obtained a stoichiometry below 1 (n = 0.85), which cannot be attributed to systematic errors in the determination of the protein concentration. This discrepancy might indicate that in addition to the main complex consisting of a 1:1 protein/peptide ratio, a small population with a 1:2 stoichiometry is also present in solution.
ITC measurements were performed using a nano ITC calorimeter (TA Instruments) at 12 °C or 25 °C. Protein samples were prepared in 20 mM Tris-HCl pH 7.0 and 130 mM NaCl. All samples were degassed and centrifuged prior to the experiments. Protein concentration was measured in a NanoDrop™ 2000 measuring the UV absorption at 280 nm. Peptide concentration was determined by amino acid analysis. […]

Assay [2] has as its target T2, Pin1 full-length (Homo sapiens, UniProt Q13526).
T2 construct: The full-length Pin1 clone was obtained from Addgene; His6 (N); provided by Dustin Maly's Lab
Put plainly: ITC titration of CPEB1 phosphopeptides with Pin1 full-length. It counts as binding. Particulars: for Kd: nano ITC calorimeter, 12 °C or 25 °C, 20 mM Tris-HCl pH 7.0, 130 mM NaCl, repeated at least twice, for pS210 one Pin1 molecule could interact with two peptides, read-out: Pin1 FL KD.
Text: as §1
ITC measurements were performed using a nano ITC calorimeter (TA Instruments) at 12 °C or 25 °C. Protein samples were prepared in 20 mM Tris-HCl pH 7.0 and 130 mM NaCl. All samples were degassed and centrifuged prior to the experiments. Protein concentration was measured in a NanoDrop™ 2000 measuring the UV absorption at 280 nm. Peptide concentration was determined by amino acid analysis. Depending on the expected affinity, sigmoidal curves were optimized by injecting 10- to 15-fold concentrated peptide in 16 × 3 μL steps in a cell containing 190 μL of protein at an adjusted concentration of between 150 and 200 μM , stirring at 200 revolutions per minute (rpm). The delay between injections was set to be of 3 minutes. The NanoAnalyze software (TA Instruments) was used to determine the binding isotherms, assuming a single binding site in each molecule (except for the Pin1 full-length interaction with the CPEB1 pS210 peptide, where one Pin1 molecule could interact with two peptides). Baseline controls were acquired with buffer and pure peptide solutions. Measurements were repeated at least twice.
Background: ITC needs no label: the signal is the heat of the interaction.

Non-standard residues stand in square brackets, D forms with d. Residues, ends and D or L forms follow the SMILES beside them. pS = N[C@@H](COP(=O)(O)O)C(=O)O

The values that follow come from paper PMC4601027, “Structural Analysis of the Pin1-CPEB1 interaction and its potential role in CPEB1 degradation” (Scientific Reports, 2015).

T1 sequence (Q13526 1-41): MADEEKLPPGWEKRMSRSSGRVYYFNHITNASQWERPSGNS
T2 sequence (Q13526 whole entry): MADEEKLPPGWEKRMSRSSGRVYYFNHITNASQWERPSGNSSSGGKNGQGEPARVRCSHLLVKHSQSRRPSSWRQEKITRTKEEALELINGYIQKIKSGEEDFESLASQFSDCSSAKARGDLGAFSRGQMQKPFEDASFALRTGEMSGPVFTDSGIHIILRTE

Consider `CC(=O)N[C@@H](C)C(=O)N[C@@H](C)C(=O)N[C@H](C(=O)N[C@H](C(=O)N[C@@H](COP(=O)(O)O)C(=O)N1CCC[C@H]1C(=O)N[C@@H](CC(C)C)C(=O)NCC(N)=O)C(C)C)[C@@H](C)O` [CPEB1 pS248] (Ac-AATV[pS]PLG-NH2; N-terminus assumed), for which the Kd in assay [1] is 47.6 ± 7.6 µM; in assay [2], 42.4 ± 8.7 µM.
`CC(=O)NCC(=O)N[C@@H](CCCCN)C(=O)N1CCC[C@H]1C(=O)N[C@@H](COP(=O)(O)O)C(=O)N1CCC[C@H]1C(=O)N[C@@H](CC(C)C)C(=O)NCC(=O)N[C@@H](Cc1ccccc1)C(=O)N[C@@H](CC(C)C)C(=O)N[C@H](C(N)=O)[C@@H](C)O` [CPEB1 pS144] (Ac-GKP[pS]PLGFLT-NH2; N-terminus assumed): the results for the Kd in assay [1] and in assay [2] were 75.4 ± 12.7 µM and 83.5 ± 11.5 µM, respectively.
As to `CSCC[C@H](NC(=O)[C@H](CO)NC(C)=O)C(=O)N[C@@H](CC(C)C)C(=O)N[C@@H](CC(N)=O)C(=O)N[C@@H](COP(=O)(O)O)C(=O)N1CCC[C@H]1C(=O)N[C@@H](CCSC)C(=O)NCC(=O)N[C@@H](CCCCN)C(N)=O` [CPEB1 pS138] (Ac-SMLN[pS]PMGK-NH2; N-terminus assumed), the Kd in assay [1] is 71.3 ± 9.3 µM; in assay [2], 84.3 ± 10.6 µM.
On to `CC[C@H](C)[C@H](NC(=O)[C@H](CCCNC(=N)N)NC(=O)[C@H](CC(C)C)NC(C)=O)C(=O)N[C@@H](COP(=O)(O)O)C(=O)N1CCC[C@H]1C(=O)N1CCC[C@H]1C(=O)N[C@@H](CC(C)C)C(=O)N[C@@H](Cc1c[nH]cn1)C(=O)N[C@@H](Cc1ccccc1)C(=O)N[C@@H](CC(C)C)C(=O)N1CCC[C@H]1C(=O)N[C@@H](CC(C)C)C(=O)NCC(=O)NCC(N)=O` [CPEB1 pS210] (Ac-LRI[pS]PPLHFLPLGG-NH2; N-terminus assumed), for which, in assay [2] (protein/peptide stoichiometry), the “stoichiometry (n), full-length Pin1” value is 0.85.

What is called Kd is the equilibrium constant for the complex coming apart.
